The supplement of paper PMC6045584
± gives the standard deviation of the averaged measurements.

What was measured:
PACLITAXEL = compound: CC(=O)O[C@H]1C(=O)[C@@]2(C)[C@H]([C@H](OC(=O)c3ccccc3)[C@]3(O)C[C@H](OC(=O)[C@H](O)[C@@H](NC(=O)c4ccccc4)c4ccccc4)C(C)=C1C3(C)C)[C@]1(OC(C)=O)CO[C@@H]1C[C@@H]2O [PACLITAXEL]; test: surviving fraction relative to DMSO-only wells; higher = less growth inhibition; details: exposure time: 5 days
Procedure, shortened: (§1)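 Each tumour cell line was screened three times, and only lines with replicate Pearson r >0.7 and median Z' >0.3 were kept. Cells in log phase were seeded at 250–500 per well in 384-well plates, left 24 hours, then exposed continuously for five days to inhibitors at 0.5, 1, 5, 10, 50, 100, 500 and 1000 nM. Viability was read as CellTiter-Glo luminescence, with surviving fraction normalised to the median of DMSO-only wells.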

CELECOXIB = compound: Cc1ccc(-c2cc(C(F)(F)F)nn2-c2ccc(S(N)(=O)=O)cc2)cc1 [CELECOXIB]; test: as above; details: exposure time: 5 days
Procedure, shortened: as §1

| Test System | surviving fraction (PACLITAXEL; 0.5 nM) | surviving fraction (PACLITAXEL; 1 nM) | surviving fraction (PACLITAXEL; 5 nM) | surviving fraction (PACLITAXEL; 10 nM) | surviving fraction (PACLITAXEL; 50 nM) | surviving fraction (PACLITAXEL; 100 nM) | surviving fraction (PACLITAXEL; 500 nM) | surviving fraction (PACLITAXEL; 1000 nM) | surviving fraction (CELECOXIB; 0.5 nM) | surviving fraction (CELECOXIB; 1 nM) | surviving fraction (CELECOXIB; 5 nM) | surviving fraction (CELECOXIB; 10 nM) | surviving fraction (CELECOXIB; 50 nM) | surviving fraction (CELECOXIB; 100 nM) | surviving fraction (CELECOXIB; 500 nM) | surviving fraction (CELECOXIB; 1000 nM) |
| --- | --- | --- | --- | --- | --- | --- | --- | --- | --- | --- | --- | --- | --- | --- | --- | --- |
| MDAMB453 BREAST | 0.988 ± 0.082 | 0.998 ± 0.096 | 0.382 ± 0.051 | 0.303 ± 0.02 | 0.164 ± 0.014 | 0.145 ± 0.016 | 0.131 ± 0.015 | 0.134 ± 0.015 | 1.07 ± 0.076 | 1.1 ± 0.079 | 1.09 ± 0.072 | 1.18 ± 0.1 | 1.14 ± 0.021 | 1.12 ± 0.03 | 1.04 ± 0.044 | 1.09 ± 0.04 |
| VP229 BREAST | 1.05 ± 0.091 | 0.93 ± 0.067 | 0.516 ± 0.064 | 0.364 ± 0.041 | 0.338 ± 0.013 | 0.27 ± 0.019 | 0.279 ± 0.052 | 0.293 ± 0.024 | 1.15 ± 0.15 | 1.21 ± 0.19 | 1.21 ± 0.12 | 1.12 ± 0.13 | 1.15 ± 0.052 | 1.27 ± 0.03 | 1.25 ± 0.076 | 1.4 ± 0.049 |
| 93VU HEADNECK | 0.972 ± 0.067 | 0.752 ± 0.059 | 0.326 ± 0.015 | 0.266 ± 0.014 | 0.157 ± 0.011 | 0.134 ± 0.0064 | 0.135 ± 0.018 | 0.132 ± 0.0017 | 1.02 ± 0.064 | 1.11 ± 0.076 | 1.1 ± 0.043 | 1.08 ± 0.16 | 1.03 ± 0.083 | 1.08 ± 0.15 | 1.08 ± 0.052 | 1.07 ± 0.086 |
| BT549 BREAST | 0.963 ± 0.13 | 0.219 ± 0.04 | 0.0553 ± 0.0085 | 0.0387 ± 0.0025 | 0.049 ± 0.0079 | 0.041 ± 0.0027 | 0.038 ± 0.0053 | 0.0463 ± 0.014 | 1.02 ± 0.08 | 1.06 ± 0.088 | 1.07 ± 0.16 | 1.24 ± 0.062 | 1.15 ± 0.068 | 1.28 ± 0.067 | 1.18 ± 0.03 | 1.15 ± 0.058 |
| OS25HAL BONE | 0.99 ± 0.023 | 0.993 ± 0.039 | 0.29 ± 0.028 | 0.118 ± 0.007 | 0.077 ± 0.0062 | 0.0677 ± 0.011 | 0.0523 ± 0.0029 | 0.0687 ± 0.017 | 1.03 ± 0.017 | 1.02 ± 0.033 | 1.06 ± 0.021 | 1.07 ± 0.022 | 1.06 ± 0.044 | 1.1 ± 0.035 | 1.15 ± 0.08 | 1.08 ± 0.051 |
| SCC003 HEADNECK | 0.945 ± 0.11 | 0.805 ± 0.075 | 0.324 ± 0.037 | 0.27 ± 0.028 | 0.192 ± 0.01 | 0.196 ± 0.031 | 0.179 ± 0.021 | 0.166 ± 0.018 | 1.07 ± 0.033 | 1.1 ± 0.049 | 1.05 ± 0.034 | 1.06 ± 0.027 | 1.12 ± 0.11 | 1.09 ± 0.049 | 1.13 ± 0.11 | 1.08 ± 0.067 |
| CHLA90 AUTONOMIC GANGLIA | 0.957 ± 0.032 | 0.948 ± 0.056 | 0.507 ± 0.022 | 0.231 ± 0.026 | 0.0937 ± 0.01 | 0.076 ± 0.016 | 0.0513 ± 0.0046 | 0.0577 ± 0.009 | 1.01 ± 0.048 | 0.999 ± 0.058 | 0.99 ± 0.054 | 1.03 ± 0.12 | 1.03 ± 0.088 | 1 ± 0.15 | 0.999 ± 0.058 | 1.08 ± 0.026 |
| MCF7 BREAST | 0.863 ± 0.077 | 0.714 ± 0.016 | 0.432 ± 0.02 | 0.383 ± 0.0065 | 0.372 ± 0.01 | 0.356 ± 0.0077 | 0.333 ± 0.013 | 0.326 ± 0.012 | 0.933 ± 0.053 | 0.922 ± 0.05 | 0.938 ± 0.013 | 0.927 ± 0.035 | 0.937 ± 0.042 | 0.942 ± 0.093 | 1 ± 0.011 | 1.01 ± 0.033 |
| CAL72 BONE | 0.876 ± 0.061 | 0.459 ± 0.078 | 0.386 ± 0.047 | 0.297 ± 0.032 | 0.191 ± 0.018 | 0.135 ± 0.031 | 0.112 ± 0.0096 | 0.123 ± 0.025 | 1.03 ± 0.1 | 1.04 ± 0.14 | 1.05 ± 0.11 | 1.04 ± 0.046 | 1.06 ± 0.12 | 1.08 ± 0.17 | 1.07 ± 0.13 | 1.09 ± 0.12 |
| HCC1395 BREAST | 0.749 ± 0.14 | 0.821 ± 0.065 | 0.782 ± 0.033 | 0.547 ± 0.11 | 0.419 ± 0.16 | 0.362 ± 0.054 | 0.396 ± 0.088 | 0.405 ± 0.051 | 1.17 ± 0.084 | 1.2 ± 0.13 | 1.32 ± 0.041 | 1.26 ± 0.053 | 1.27 ± 0.038 | 1.22 ± 0.041 | 1.25 ± 0.053 | 1.21 ± 0.037 |
| MDAMB134 BREAST | 0.936 ± 0.055 | 0.994 ± 0.033 | 0.904 ± 0.18 | 0.67 ± 0.13 | 0.587 ± 0.11 | 0.4935 ± 0.00071 | 0.491 ± 0.072 | 0.598 ± 0.077 | 0.969 ± 0.016 | 0.898 ± 0.054 | 0.881 ± 0.084 | 0.913 ± 0.083 | 1.18 ± 0.2 | 1.18 ± 0.12 | 0.984 ± 0.095 | 0.978 ± 0.085 |
| HCC1954 BREAST | 0.6985 ± 0.00071 | 0.569 ± 0.0021 | 0.199 ± 0.0014 | 0.094 ± 0.0057 | 0.0897 ± 0.0025 | 0.071 ± 0.0028 | 0.0592 ± 0.012 | 0.0653 ± 0.015 | 1.05 ± 0.12 | 1.07 ± 0.076 | 1.39 ± 0.077 | 1.27 ± 0.065 | 1.11 ± 0.033 | 0.959 ± 0.038 | 1.08 ± 0.024 | 0.859 ± 0.088 |
| SIHA CERVIX | 0.988 ± 0.031 | 0.948 ± 0.04 | 0.238 ± 0.029 | 0.136 ± 0.014 | 0.0897 ± 0.0031 | 0.0817 ± 0.004 | 0.101 ± 0.0087 | 0.0943 ± 0.014 | 1.08 ± 0.065 | 1 ± 0.064 | 1.08 ± 0.033 |  | 1.06 ± 0.072 | 1.11 ± 0.026 | 1.07 ± 0.067 | 1.05 ± 0.064 |
| HOSMNG BONE | 1.04 ± 0.049 | 1.05 ± 0.11 | 0.921 ± 0.088 | 0.924 ± 0.043 | 0.29 ± 0.031 | 0.12 ± 0.0079 | 0.0573 ± 0.0021 | 0.063 ± 0.0044 | 0.941 ± 0.06 | 0.968 ± 0.093 | 0.923 ± 0.047 | 0.879 ± 0.11 | 1.01 ± 0.059 | 1.08 ± 0.098 | 1.05 ± 0.13 | 1.02 ± 0.072 |
| HU09 BONE | 0.811 ± 0.11 | 0.45 ± 0.011 | 0.0977 ± 0.0081 | 0.0603 ± 0.0055 | 0.0367 ± 0.0029 | 0.0263 ± 0.0042 | 0.0247 ± 0.0015 | 0.0247 ± 0.0042 | 1 ± 0.092 | 0.961 ± 0.061 | 1.08 ± 0.027 | 1.03 ± 0.13 | 1.04 ± 0.05 |  | 0.952 ± 0.18 | 0.846 ± 0.02 |
| MG63 BONE | 0.901 ± 0.049 | 0.881 ± 0.021 | 0.263 ± 0.016 | 0.095 ± 0.01 | 0.0463 ± 0.0055 | 0.038 ± 0.0044 | 0.0287 ± 0.0015 | 0.03 ± 0.002 | 1.04 ± 0.045 | 1.04 ± 0.046 | 1.09 ± 0.038 | 1.08 ± 0.033 | 1.09 ± 0.039 | 1.12 ± 0.042 | 1.1 ± 0.032 | 1.06 ± 0.044 |
| SUM159 BREAST | 1.13 ± 0.24 | 1.1 ± 0.15 | 0.57 ± 0.024 | 0.179 ± 0.0045 | 0.12 ± 0.0095 | 0.107 ± 0.0015 | 0.124 ± 0.0017 | 0.137 ± 0.02 | 1.07 ± 0.032 | 1.1 ± 0.031 | 1.09 ± 0.032 | 1.08 ± 0.048 | 1.08 ± 0.014 | 1.1 ± 0.024 | 1.07 ± 0.021 | 1.09 ± 0.017 |
| MDAMB157 BREAST | 0.867 ± 0.075 | 0.674 ± 0.019 | 0.144 ± 0.022 | 0.105 ± 0.019 | 0.0473 ± 0.016 | 0.0687 ± 0.028 | 0.0473 ± 0.0098 | 0.069 ± 0.011 | 0.92 ± 0.089 | 0.989 ± 0.093 | 0.993 ± 0.048 | 0.967 ± 0.045 | 1 ± 0.16 | 0.991 ± 0.04 | 0.984 ± 0.025 | 0.945 ± 0.07 |
| CAL120 BREAST | 0.744 ± 0.044 | 0.602 ± 0.022 | 0.158 ± 0.014 | 0.0937 ± 0.005 | 0.105 ± 0.003 | 0.0962 ± 0.0023 | 0.0798 ± 0.0061 | 0.0923 ± 0.007 | 0.962 ± 0.045 | 0.979 ± 0.039 | 0.964 ± 0.067 | 0.99 ± 0.049 | 1 ± 0.04 | 1.01 ± 0.032 | 0.995 ± 0.085 | 1 ± 0.011 |
| ZR751 BREAST | 0.774 ± 0.1 | 0.628 ± 0.042 | 0.52 ± 0.087 | 0.461 ± 0.024 | 0.389 ± 0.042 | 0.437 ± 0.057 | 0.397 ± 0.021 | 0.449 ± 0.023 | 1.1 ± 0.19 | 1.1 ± 0.077 | 1.05 ± 0.07 | 1.07 ± 0.076 | 1.09 ± 0.084 | 1.15 ± 0.1 | 1.06 ± 0.026 | 1.04 ± 0.19 |
| CCK81 LARGE INTESTINE |  |  |  |  |  |  |  |  | 0.841 ± 0.1 | 0.867 ± 0.052 | 0.744 ± 0.14 | 0.819 ± 0.059 | 0.774 ± 0.094 | 0.732 ± 0.099 | 0.735 ± 0.089 | 0.813 ± 0.077 |
